# Measured values published in patent US20260297134A1, “CYCLIC PEPTIDES AS PET IMAGING AGENTS OF GRANZYME B” (Merck Sharp & Dohme LLC, priority 2023, published 2026).
# Bridge positions count the residues as written; N and C are the ends. Square brackets hold non-standard residues; d marks the D form. Peptide text beside a SMILES is read from it. * marks the point of attachment. X1 = O=C(O)CN1CCN(CC(=O)O)CC(Cc2ccc(NC(=S)*)cc2)N(CC(=O)O)CC1; NMeF = CN[C@@H](Cc1ccccc1)C(=O)O; NMeA = CN[C@@H](C)C(=O)O
# Molecular target: human Granzyme B (hGranzyme B) (Homo sapiens, UniProt P10144)
# Assay: Surface Plasmon Resonance (SPR) binding to human Granzyme B
# Settings: Table 8, 25° C.
# Protocol: All reagents and solvents were purchased from commercial sources and used “as is” unless otherwise noted. Reaction progress and synthetic intermediate analysis were assessed by LCMS (UV detection with ESI, APCI, or other mass detection) when applicable using a MeCN/water gradient with either TFA, formic acid, or NH4HCO3 modifier. Silica gel and reverse-phase flash column chromatography were conducted with commercially available pre-packed columns. Reverse-phase preparative HPLC purification was performed on preparative HPLC instruments with UV and MS detection using a MeCN/water gradient with either TFA, formic acid, or NH4OH modifier. Unless otherwise noted, all KD data presented in tables refers to the surface plasmon resonance assay that is described in the Biological Assay section.
# The kinetics of test peptide binding to human Granzyme B (hGranzyme B) was determined by SPR. All experiments were performed at 25° C. using the Biacore 8k+ instrument (Cytiva, Marlborough, MA). The Biacore 8k+ Insight Evaluation Software Version 3.0 was used to fit the data with a 1:1 binding model to determine the association rate constant ka (M^−1s^−1, where “M” equals molar and “s” equals seconds) and the dissociation rate constant kd (s^−1). These rate constants were used to calculate the equilibrium dissociation constant, KD (M)=kd/ka. To measure the binding kinetics of peptides of interest, surfaces were prepared by a capture method to a Series S Streptavidin (SA) chip using a 1×HBS-EP+ running buffer (Cytiva). hGranzyme B was diluted to 10 μg/mL in 1×HBS-EP+ and flowed over spot 2 of each flow cell on the chip at a flow rate of 10 μl/min for 20 s to achieve a level of capture of ~1100 RU. An unmodified spot 1 of each flow cell was used as a matrix binding control or reference surface. Binding kinetics were measured using single cycle kinetics at 25° C. by injecting 5 concentrations with 3-fold serial dilutions of test peptides from […] to 1 μM. Compound dilutions were performed manually in a running buffer containing 1×HBS-EP+(Cytiva), and a final concentration of 2% DMSO. The interaction analyses over hGranzyme B, were performed using a 120 s association time and a 900 s dissociation time. All experiments were conducted at a flow rate of […] with a data collection rate of 10 Hz.
# Peptide dilution series included 2 zero concentration points (no compound) which were averaged and subtracted from the peptide concentration injection as DMSO control responses. Binding data acquired from the reference surface (matrix binding control) were subtracted from the binding data for hGranzyme B surface on the chip to determine specific binding. Next, the association phase data were solvent corrected to account for any signal fluctuation throughout the experiment due to subtle DMSO concentration differences. Corrected response data were analyzed using the Biacore 8k+ Evaluation Software Version 3.0 according to the manufacturer. SPR data for representative compounds of the disclosure are found in Table 8.
# Chain of human Granzyme B (hGranzyme B) (P10144 21-247): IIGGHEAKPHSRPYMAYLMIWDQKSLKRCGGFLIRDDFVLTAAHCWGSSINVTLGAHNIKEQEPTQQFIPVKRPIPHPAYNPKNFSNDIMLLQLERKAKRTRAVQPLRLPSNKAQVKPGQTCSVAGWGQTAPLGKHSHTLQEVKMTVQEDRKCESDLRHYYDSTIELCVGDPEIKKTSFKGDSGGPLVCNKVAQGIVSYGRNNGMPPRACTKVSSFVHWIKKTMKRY
row,SMILES,Kd [nM]
1,"CC(C)[C@@H]1NC(=O)[C@H](CC(=O)O)NC(=O)[C@H](Cc2ccc(O)cc2)NC(=O)[C@H](Cc2ccc(O)cc2)NC(=O)[C@H](Cc2ccccc2)N(C)C(=O)[C@H](Cc2ccccc2)N(C)C(=O)[C@H](Cc2ccccc2)NC(=O)CSC[C@@H](C(=O)NCC(=O)N[C@@H](CCCCN)C(N)=O)NC(=O)[C@H](Cc2c[nH]cn2)NC(=O)[C@H](Cc2ccccc2)N(C)C(=O)[C@H](Cc2ccc(O)cc2)NC(=O)[C@H](C(C)C)NC(=O)[C@H](CC(=O)O)NC(=O)[C@H](C(C)C)NC(=O)[C@H](CC(=O)O)NC1=O [Compound 12a, *F.NMeF.NMeF.Y.Y.D.V.D.V.D.V.Y.NMeF.H.*C.G.K-NH2] ({CH2CO}-F[NMeF][NMeF]YYDVDVDVY[NMeF]HCGK-NH2; thioether N-15)",2.6
2,"CC(C)[C@@H]1NC(=O)[C@H](CC(=O)O)NC(=O)[C@H](C(C)C)NC(=O)[C@H](CC(=O)O)NC(=O)[C@H](Cc2ccc(O)cc2)NC(=O)[C@H](Cc2ccc(O)cc2)NC(=O)[C@H](Cc2ccccc2)N(C)C(=O)[C@H](Cc2ccccc2)N(C)C(=O)[C@H](Cc2ccccc2)NC(=O)CSC[C@@H](C(=O)NCC(N)=O)NC(=O)[C@H](Cc2c[nH]cn2)NC(=O)[C@H](Cc2ccccc2)N(C)C(=O)[C@H](Cc2ccc(O)cc2)NC(=O)[C@H](C)NC(=O)[C@H](CC(=O)O)NC1=O [Compound 17a, *F.NMeF.NMeF.Y.Y.D.V.D.V.D.A.Y.NMeF.H.*C.G-NH2] ({CH2CO}-F[NMeF][NMeF]YYDVDVDAY[NMeF]HCG-NH2; thioether N-15)",10.7
3,"CC(C)[C@@H]1NC(=O)[C@H](CC(=O)O)NC(=O)[C@H](C)NC(=O)[C@H](Cc2ccc(O)cc2)NC(=O)[C@H](Cc2ccccc2)N(C)C(=O)[C@H](Cc2ccccc2)N(C)C(=O)[C@H](Cc2ccccc2)NC(=O)CSC[C@@H](C(=O)NCC(N)=O)NC(=O)[C@H](Cc2c[nH]cn2)NC(=O)[C@H](Cc2ccccc2)N(C)C(=O)[C@H](Cc2ccc(O)cc2)NC(=O)[C@H](C(C)C)NC(=O)[C@H](CC(=O)O)NC(=O)[C@H](C(C)C)NC(=O)[C@H](CC(=O)O)NC1=O [Compound 15a, *F.NMeF.NMeF.Y.A.D.V.D.V.D.V.Y.NMeF.H.*C.G-NH2] ({CH2CO}-F[NMeF][NMeF]YADVDVDVY[NMeF]HCG-NH2; thioether N-15)",0.8
4,"CC(C)[C@@H]1NC(=O)[C@H](CC(=O)O)NC(=O)[C@H](Cc2ccc(O)cc2)NC(=O)[C@H](Cc2ccc(O)cc2)NC(=O)[C@H](Cc2ccccc2)N(C)C(=O)[C@H](Cc2ccccc2)N(C)C(=O)[C@H](Cc2ccccc2)NC(=O)CSC[C@@H](C(=O)NCC(=O)NCC(=O)N[C@@H](CCCCNC(=S)Nc2ccc(CC3CN(CC(=O)O)CCN(CC(=O)O)CCN3CC(=O)O)cc2)C(N)=O)NC(=O)[C@H](Cc2c[nH]cn2)NC(=O)[C@H](Cc2ccccc2)N(C)C(=O)[C@H](Cc2ccc(O)cc2)NC(=O)[C@H](C(C)C)NC(=O)[C@H](CC(=O)O)NC(=O)[C@H](C)NC(=O)[C@H](CC(=O)O)NC1=O (stereo partly drawn) [Compound 8a, *F.NMeF.NMeF.Y.Y.D.V.D.A.D.V.Y.NMeF.H.*C.G.G.K(NOTA)-NH2] ({CH2CO}-F[NMeF][NMeF]YYDVDADVY[NMeF]HCGGK(X1)-NH2; thioether N-15)",3.7
5,"CC(C)[C@@H]1NC(=O)[C@H](CC(=O)O)NC(=O)[C@H](Cc2ccc(O)cc2)NC(=O)[C@H](Cc2ccc(O)cc2)NC(=O)[C@H](Cc2ccccc2)N(C)C(=O)[C@H](Cc2ccccc2)N(C)C(=O)[C@H](Cc2ccccc2)NC(=O)CSC[C@@H](C(=O)NCC(N)=O)NC(=O)[C@H](Cc2c[nH]cn2)NC(=O)[C@H](Cc2ccccc2)N(C)C(=O)[C@H](Cc2ccc(O)cc2)NC(=O)[C@H](C(C)C)NC(=O)[C@H](CC(=O)O)NC(=O)[C@H](C)NC(=O)[C@H](CC(=O)O)NC1=O [Compound 16a, *F.NMeF.NMeF.Y.Y.D.V.D.A.D.V.Y.NMeF.H.*C.G-NH2] ({CH2CO}-F[NMeF][NMeF]YYDVDADVY[NMeF]HCG-NH2; thioether N-15)",4.7

# Now from value to molecule:
row,Kd [nM],SMILES
1,2.1,"CC(C)[C@@H]1NC(=O)[C@H](CC(=O)O)NC(=O)[C@H](C)NC(=O)[C@H](Cc2ccc(O)cc2)NC(=O)[C@H](Cc2ccccc2)N(C)C(=O)[C@H](Cc2ccccc2)N(C)C(=O)[C@H](Cc2ccccc2)NC(=O)CSC[C@@H](C(=O)NCC(=O)N[C@@H](CCCCN)C(=O)N[C@@H](CCCCN)C(N)=O)NC(=O)[C@H](Cc2c[nH]cn2)NC(=O)[C@H](Cc2ccccc2)N(C)C(=O)[C@H](Cc2ccc(O)cc2)NC(=O)[C@H](C(C)C)NC(=O)[C@H](CC(=O)O)NC(=O)[C@H](C(C)C)NC(=O)[C@H](CC(=O)O)NC1=O [Compound 11a, *F.NMeF.NMeF.Y.A.D.V.D.V.D.V.Y.NMeF.H.*C.G.K.K-NH2] ({CH2CO}-F[NMeF][NMeF]YADVDVDVY[NMeF]HCGKK-NH2; thioether N-15)"
2,548,"CC(C)[C@@H]1NC(=O)[C@H](C)NC(=O)[C@H](C(C)C)NC(=O)[C@H](CC(=O)O)NC(=O)[C@H](Cc2ccc(O)cc2)NC(=O)[C@H](Cc2ccc(O)cc2)NC(=O)[C@H](Cc2ccccc2)N(C)C(=O)[C@H](Cc2ccccc2)N(C)C(=O)[C@H](Cc2ccccc2)NC(=O)CSC[C@@H](C(=O)NCC(N)=O)NC(=O)[C@H](Cc2c[nH]cn2)NC(=O)[C@H](Cc2ccccc2)N(C)C(=O)[C@H](Cc2ccc(O)cc2)NC(=O)[C@H](C(C)C)NC(=O)[C@H](CC(=O)O)NC1=O [Compound 22a, *F.NMeF.NMeF.Y.Y.D.V.A.V.D.V.Y.NMeF.H.*C.G-NH2] ({CH2CO}-F[NMeF][NMeF]YYDVAVDVY[NMeF]HCG-NH2; thioether N-15)"
3,1.1,"CC(C)[C@@H]1NC(=O)[C@H](CC(=O)O)NC(=O)[C@H](Cc2ccc(O)cc2)NC(=O)[C@H](Cc2ccc(O)cc2)NC(=O)[C@H](Cc2ccccc2)N(C)C(=O)[C@H](Cc2ccccc2)N(C)C(=O)[C@H](Cc2ccccc2)NC(=O)CSC[C@@H](C(=O)NCC(=O)NCC(=O)N[C@@H](CCCCN)C(N)=O)NC(=O)[C@H](Cc2c[nH]cn2)NC(=O)[C@H](Cc2ccccc2)N(C)C(=O)[C@H](Cc2ccc(O)cc2)NC(=O)[C@H](C(C)C)NC(=O)[C@H](CC(=O)O)NC(=O)[C@H](C(C)C)NC(=O)[C@H](CC(=O)O)NC1=O [Compound 2a, *F.NMeF.NMeF.Y.Y.D.V.D.V.D.V.Y.NMeF.H.*C.G.G.K-NH2] ({CH2CO}-F[NMeF][NMeF]YYDVDVDVY[NMeF]HCGGK-NH2; thioether N-15)"
4,199,"CC(C)[C@@H]1NC(=O)[C@H](CC(=O)O)NC(=O)[C@H](Cc2ccc(O)cc2)NC(=O)[C@H](Cc2ccc(O)cc2)NC(=O)[C@H](Cc2ccccc2)N(C)C(=O)[C@H](C)N(C)C(=O)[C@H](Cc2ccccc2)NC(=O)CSC[C@@H](C(=O)NCC(N)=O)NC(=O)[C@H](Cc2c[nH]cn2)NC(=O)[C@H](Cc2ccccc2)N(C)C(=O)[C@H](Cc2ccc(O)cc2)NC(=O)[C@H](C(C)C)NC(=O)[C@H](CC(=O)O)NC(=O)[C@H](C(C)C)NC(=O)[C@H](CC(=O)O)NC1=O [Compound 25a, *F.NMeA.NMeF.Y.Y.D.V.D.V.D.V.Y.NMeF.H.*C.G-NH2] ({CH2CO}-F[NMeA][NMeF]YYDVDVDVY[NMeF]HCG-NH2; thioether N-15)"
